In brackets after ≈: the same amount, converted by molar mass. Activity calls are given as the source filed them. No cut-off for these calls is given here.
Assays:
L929 = assay: Cytotoxicity against mouse L929 cells assessed as reduction in cell viability by MTT assay; type: functional, cell-based
Candida albicans = assay: Antimicrobial activity against Candida albicans DSM1665 by serial dilution method; type: functional
Staphylococcus aureus = assay: Antimicrobial activity against Staphylococcus aureus DSM346 by serial dilution method; type: functional
Mucor hiemalis = assay: Antimicrobial activity against Mucor hiemalis DSM2656 by serial dilution method; type: functional
Micrococcus luteus = assay: Antimicrobial activity against Micrococcus luteus DSM1790 by serial dilution method; type: functional
KB 3-1 = assay: Cytotoxicity against human KB3.1 cells assessed as reduction in cell viability by MTT assay; type: functional, cell-based
Wickerhamomyces anomalus = assay: Antimicrobial activity against Pichia anomala DSM6766 by serial dilution method; type: functional
[1] = tested on: Mycolicibacterium smegmatis; assay: Antimicrobial activity against Mycobacterium smegmatis DSM44200 by serial dilution method; type: functional
Bacillus subtilis = assay: Antimicrobial activity against Bacillus subtilis DSM10 by serial dilution method; type: functional
[2] = Mus musculus, L929, read-out: IC50

| Compound | MIC (Candida albicans) | MIC (Staphylococcus aureus) | MIC (Mucor hiemalis) | MIC (Micrococcus luteus) | MIC [1] | MIC (Bacillus subtilis) | further results |
| --- | --- | --- | --- | --- | --- | --- | --- |
| COc1c(O)c2c(c3cnc4c(c13)C(=O)C=C(C)C4=O)[C@@H](C(C)C)CC[C@@H]2C | 100 µg/mL (≈ 264 µM) | 50 µg/mL (≈ 132 µM) | 50 µg/mL (≈ 132 µM) | 6.3 µg/mL (≈ 16.6 µM) | inactive | 6.3 µg/mL (≈ 16.6 µM) | IC50 (L929; l929): Not Active; IC50 (KB 3-1): Not Active; MIC (Wickerhamomyces anomalus; Hansenula anomala): 100 µg/mL (≈ 264 µM) |
| CC1=CC(=O)C(c2c(C=O)c(O)c(O)c3c2[C@@H](C(C)C)CC[C@@H]3C)=C(O)C1=O | 100 µg/mL (≈ 260 µM) | 50 µg/mL (≈ 130 µM) | 25 µg/mL (≈ 65 µM) | 3.1 µg/mL (≈ 8.06 µM) | 100 µg/mL (≈ 260 µM) | 12.5 µg/mL (≈ 32.5 µM) | IC50 (L929; [2]): 5.5 µM; IC50 (KB 3-1): Not Active; MIC (Wickerhamomyces anomalus; Hansenula anomala): 100 µg/mL (≈ 260 µM) |
| NC[C@H]1O[C@H](O[C@H]2[C@H](O)[C@@H](O[C@H]3O[C@H](CO)[C@@H](O)[C@H](N)[C@H]3O)[C@H](N)C[C@@H]2N)[C@H](O)[C@@H](O)[C@@H]1O [KANAMYCIN] |  |  |  |  | 0.6 µg/mL (≈ 1.24 µM) |  |  |
| NYSTATIN | 9.2 µg/mL |  | 9.2 µg/mL |  |  |  | MIC (Wickerhamomyces anomalus): 4.6 µg/mL |
| GENTAMICIN |  | 9.2 µg/mL |  |  |  |  |  |
| CN(C)[C@@H]1C(O)=C(C(N)=O)C(=O)[C@@]2(O)C(O)=C3C(=O)c4c(O)cccc4[C@@](C)(O)[C@H]3[C@H](O)[C@@H]12 [OXYTETRACYCLINE] |  |  |  | 0.3 µg/mL (≈ 0.652 µM) |  | 9.2 µg/mL (≈ 20 µM) |  |
| C/C(=C\c1csc(C)n1)[C@@H]1C[C@@H]2O[C@]2(C)CCC[C@H](C)[C@H](O)[C@@H](C)C(=O)C(C)(C)[C@@H](O)CC(=O)O1 [PATUPILONE] |  |  |  |  |  |  | IC50 (L929; [2]): 0.0026 µM |

— ChEMBL document CHEMBL4665748, “Heimiomycins A-C and Calamenens from the African Basidiomycete Heimiomyces sp” (J Nat Prod, 2020)
